Laboratory results from US20140343001A1, “INDOLE DERIVATIVES INHIBITORS OF ENZYME LACTATE DEHYDROGENASE (LDH)” (Universitá di Pisa, priority 2011, published 2014).
Each block holds one molecule with its values, some of them ahead of it.

Key:
H1299 = experiment: Inhibition of tumor cell growth method (a), sulforhodamine B assay; assay type: cell-based; details: Homo sapiens, NCI-H1299; H1299, 72 hours, SRB
Method: (§1) The plates were incubated at 37° C. in an atmosphere composed of 95% air and 5% CO2 for 72 hours. The culture medium was then removed and the cells were fixed by addition of 50 μL of a 10% solution of trichloroacetic acid in water at 4° C. in each well. The plates were incubated at 4° C. for at least one hour, after which the colorimetric assay of sulforhodamine B (SRB) was carried out to determine the amount of biomass remaining in each well as described in previously developed methodologies [Vichai, V.; Kirtikara, K. Nat. Protoc. […] Briefly, the plates were washed several times with water and dried prior to the addition of 50 μL of a solution of dye sulforhodamine B (composed by 0.057% weight/weight of sulforhodamine B in 1% acetic acid) to each well. After 30 minutes of incubation, the unbound dye was removed by washing six times with 1% acetic acid. […] After an incubation period of 30 minutes, the absorbance in each well was read at a wavelength of 510 nm in a microplate reader. The cells treated only with vehicle consisting of a 1% solution of DMSO (vehicle) were used as control of 100% of live cells in the biomass and the wells incubated with the vehicle alone (without cells) were used to determine the baseline (0%) of live biomass. The IC50 values were calculated using the software SoftMax Pro (Molecular Devices, Sunnyvale, Calif.).

HeLa = experiment: as above; assay type: cell-based; details: Homo sapiens, 72 hours, SRB
Method: as §1

IGROV-1 = experiment: as above; assay type: cell-based; details: Homo sapiens; IGROV-1, 72 hours, SRB
Method: as §1

H226 = experiment: as above; assay type: cell-based; details: Homo sapiens, NCI-H226; H226, 72 hours, SRB
Method: as §1

MCF-7 = experiment: as above; assay type: cell-based; details: Homo sapiens, MCF7; MCF-7, 72 hours, SRB
Method: as §1

H1975 = experiment: Inhibition of tumor cell growth method (b), CellTiter-Glo; assay type: cell-based; details: Homo sapiens, NCI-H1975, H1975, 72 h
Description: (§2) CellTiter-Glo® Luminescent Cell Viability Assay (Promega) is a homogeneous method of determining the number of viable cells in culture based on quantitation of the present ATP, which indicates the presence of metabolically active cells. The homogeneous assay procedure involves addition of a single reagent (CellTiter-Glo® Reagent) directly to the cells, which leads to cell lysis and generation of a luminescent signal proportional to the amount of the ATP and the number of cells present in culture. The assay relies on the properties of a proprietary thermostable luciferase (Ultra-Glo® recombinant luciferase), which generates a luminescent signal.
(§3) After 72 h, a volume of CellTiter-Glo® Reagent equal to the volume of cell culture medium was added. The content was mixed for 2 min to induce cell lysis. The luminescence was recorded after further 10 min at RT in order to obtain a stable luminescent signal.
(§4) The IC50 was calculated using GraphPad Software.

A549 cells = experiment: as above; assay type: cell-based; details: Homo sapiens, A549, 72 h
Description: as §2, §3, §4

HeLa cells = experiment: Determination of cellular production of lactate (GC/MS); assay type: cell-based; details: 8 hours, concentrations from 50 to 200 μM, comparable or superior to 2-DeoxGlu at 10 mM
hLDH5 (LDH-A) = biological target: T1, hLDH5 (LDH-A) (Homo sapiens, UniProt P00338); experiment: Enzyme inhibition of human lactate dehydrogenase isoform 5; assay type: biochemical; details: ranges of values, pH 7.4; for Ki: 37° C., read-out: inhibitory activity against hLDH5 (Ki); for IC50: room temperature, read-out: inhibitory activity against hLDH5 (IC50)
T1 construct: purchased LEEBIO (USA)

Compound: O=C(O)c1cc2c(C(F)(F)F)cc(-c3ccccc3)cc2n1O [1-hydroxy-6-phenyl-4-trifluoromethyl-1H-indol-2-carboxylic acid, reference compound]
- IC50 (H1299): 141 µM
- IC50 (HeLa): 44 µM
- IC50 (IGROV-1): 123 µM
- IC50 (H226): 121 µM
- IC50 (MCF-7): 124 µM
- IC50 (H1975): 57 µM
- IC50 (A549 cells): 60 µM

Compound: COC(=O)c1cc2c(C(F)(F)F)cc(-c3ccccc3)cc2n1O[C@@H]1O[C@H](CO)[C@@H](O)[C@H](O)[C@H]1O [Example 3, methyl 6-phenyl-1-(β-D-glucopyranosyl)oxy-4-(trifluoromethyl)-1H-indole-2-carboxylate]
- reduction of cellular production of lactate (HeLa cells): reduce effectively cellular production of lactate
- IC50 (H1299): < 40 µM
- IC50 (HeLa): < 17 µM
- IC50 (IGROV-1): < 31 µM
- IC50 (H226): < 26 µM
- IC50 (MCF-7): < 35 µM
- IC50 (H1975): ≤ 31 µM
- IC50 (A549 cells): ≤ 31 µM

Compound: COC(=O)c1cc2c(C(F)(F)F)cc(-c3ccc(Cl)cc3Cl)cc2n1O[C@@H]1O[C@H](CO)[C@@H](O)[C@H](O)[C@H]1O [Example 10, methyl 6-(2,4-dichlorophenyl)-1-(β-D-glucopyranosyl)oxy-4-(trifluoromethyl)-1H-indole-2-carboxylate]
- IC50 (HeLa): < 15 µM
- IC50 (MCF-7): < 17 µM
- IC50 (hLDH5 (LDH-A)): 50 to 500 µM

Compound: CC(C)OC(=O)c1cc2c(C(F)(F)F)cc(-c3ccccc3)cc2n1O [Example 23, isopropyl 1-hydroxy-6-phenyl-4-(trifluoromethyl)-1H-indole-2-carboxylate]
- reduction of cellular production of lactate (HeLa cells): reduce effectively cellular production of lactate
- Ki (hLDH5 (LDH-A)): 1 to 10 µM
- IC50 (H1975): ≤ 31 µM
- IC50 (A549 cells): ≤ 31 µM

Compound: CC(C)OC(=O)c1cc2c(C(F)(F)F)cc(-c3ccc(Cl)cc3Cl)cc2n1O [Example 32, isopropyl 6-(2,4-dichlorophenyl)-1-hydroxy-4-(trifluoromethyl)-1H-indole-2-carboxylate]
- reduction of cellular production of lactate (HeLa cells): reduce effectively cellular production of lactate
- Ki (hLDH5 (LDH-A)): 0.5 to 5 µM
- IC50 (H1975): ≤ 31 µM
- IC50 (A549 cells): ≤ 31 µM

Compound: CCCCOC(=O)c1cc2c(C(F)(F)F)cc(-c3ccc(Cl)cc3Cl)cc2n1O [Example 33, butyl 6-(2,4-dichlorophenyl)-1-hydroxy-4-(trifluoromethyl)-1H-indole-2-carboxylate]
- reduction of cellular production of lactate (HeLa cells): reduce effectively cellular production of lactate
- IC50 (hLDH5 (LDH-A)): 0.01 to 1 µM

The next lines start with results.

- IC50 (H1299): < 40 µM
- IC50 (HeLa): < 17 µM
- IC50 (IGROV-1): < 31 µM
- IC50 (H226): < 26 µM
- IC50 (MCF-7): < 35 µM
- Ki (hLDH5 (LDH-A)): 1 to 10 µM
- IC50 (H1975): ≤ 31 µM
- IC50 (A549 cells): ≤ 31 µM
Compound: CCOC(=O)c1cc2c(C(F)(F)F)cc(-c3ccccc3)cc2n1O [Example 1, ethyl 1-hydroxy-6-phenyl-4-(trifluoromethyl)-1H-indole-2-carboxylate]
- reduction of cellular production of lactate (HeLa cells): reduce effectively cellular production of lactate

- IC50 (HeLa): < 15 µM
- IC50 (MCF-7): < 17 µM
- Ki (hLDH5 (LDH-A)): 1 to 10 µM
- IC50 (H1975): ≤ 31 µM
- IC50 (A549 cells): ≤ 31 µM
Compound: COC(=O)c1cc2c(C(F)(F)F)cc(-c3ccc(Cl)cc3Cl)cc2n1O [Example 8, methyl 6-(2,4-dichlorophenyl)-1-hydroxy-4-(trifluoromethyl)-1H-indole-2-carboxylate]
- reduction of cellular production of lactate (HeLa cells): reduce effectively cellular production of lactate

- Ki (hLDH5 (LDH-A)): 1 to 10 µM
- IC50 (H1975): ≤ 31 µM
- IC50 (A549 cells): ≤ 31 µM
Compound: CCOC(=O)c1cc2c(C(F)(F)F)cc(-c3ccc(Cl)cc3Cl)cc2n1O [Example 9, ethyl 6-(2,4-dichloropheyl)-1-hydroxy-4-(trifluoromethyl)-1H-indole-2-carboxylate]
- reduction of cellular production of lactate (HeLa cells): reduce effectively cellular production of lactate

- Ki (hLDH5 (LDH-A)): 0.5 to 5 µM
- IC50 (H1975): ≤ 31 µM
- IC50 (A549 cells): ≤ 31 µM
Compound: CCCCOC(=O)c1cc2c(C(F)(F)F)cc(-c3ccccc3)cc2n1O [Example 22, butyl 1-hydroxy-6-phenyl-4-(trifluoromethyl)-1H-indole-2-carboxylate]
- reduction of cellular production of lactate (HeLa cells): reduce effectively cellular production of lactate
